Source: patent US12133855B2, “Lipid-like nanocomplexes and uses thereof” (Trustees of Tufts College, priority 2018, dated 2024)

Assays:
[1] = test system: NIH 3T3 (mouse embryonic fibroblast cells); assay: GFP mRNA delivery (GFP+ cells); assay type: cell-based; settings: LNP/mRNA=10/1, [mRNA]=0.86 μg mL^−1, 24 h
Experimental: (§1) To examine the delivery spectrum of the newly developed LNPs, the GFP mRNA loaded OCholB LNPs were then challenged against other four types of cell lines. B16F10 (mouse melanoma cells), HEK 293 (human embryonic kidney cells), NIH 3T3 (mouse embryonic fibroblast cells) and Jurkat (human T lymphocyte cells) cells were tested (LNP/mRNA=10/1; [mRNA]=0.86 μg mL^−1; 24 h exposure) and the results are shown in FIG. 14D. As the positive control, Lpf2k turned out to be very efficient to deliver GFP mRNA into B16F10 (63.2% of GFP^+ cells), HEK 293 (80.1%) and NIH 3T3 (70.1%) cells, while slightly less efficient to Jurkat cell (28.7%), which is usually considered to be one of the most difficult-to-transfect cell lines. […] For example, 63.0%, 60.9%, 54.1% and 50.1% of GFP^+ cells were determined from mRNA/75-OCholB treated B16F10, HEK 293, NIH 3T3 and Jurkat cells; and the numbers for mRNA/76-OCholB treated cells were 70.7%, 75.8%, 24.1% and 7.7%, respectively. It was obvious that not only the types of lipidoids, but also the target cell lines could have huge impacts on the delivery efficacy. Overall, the positive control, Lpf2k, is a relatively high-activity broad-spectrum transfection reagent; most of the OCholB LNPs (6 out of 9) are also effective broad-spectrum transfection reagents under the tested conditions. […] It was expected that through further formulation optimization, such as adding excipients (helper lipids like small molecular phospholipids (e.g. DOPE and DSPC) and macromolecules lipids (e.g. PEG-DSPE and PEG-Ceramide)) into the LNPs and/or using more controllable self-assembly procedures, improved transfection efficiency of the fully substituted OCholB LNPs could be achieved.

[2] = test system: B16F10 (mouse melanoma cells); assay: GFP mRNA delivery (GFP+ cells); assay type: cell-based; settings: LNP/mRNA=10/1, [mRNA]=0.86 μg mL^−1, 24 h
Experimental: as §1

[3] = test system: HEK 293 (human embryonic kidney cells); assay: GFP mRNA delivery (GFP+ cells); assay type: cell-based; settings: LNP/mRNA=10/1, [mRNA]=0.86 μg mL^−1, 24 h
Experimental: as §1

Ai14 mice = assay: In vivo genome editing, intravenous injection, tdTomato expression; design: species or system mouse; settings: day 14
Experimental: Similar to the in vitro transfection study, lipidoid nanoparticles were prepared for mRNA or protein loading and in vivo delivery. Ai14 mice were housed in a temperature and humidity controlled facility with a 12 h light/dark cycle. Three mice in each group were injected (intravenously or intramuscularly) with Cre mRNA-loaded or (−30)GFP-Cre protein-loaded LNPs formulations. Organs including heart, liver, spleen, lung and kidney from all groups were collected at day 10 (intramuscular injection) or 14 (intravenous injection) after injection. The tissues were fixed overnight in 4% paraformaldehyde (PFA) and dehydrated in 30% sucrose before being froze in OCT and sectioned into 10-15 μm slices. The slices were then collected and stained with DAPI for fluorescence imaging (BZ-X Analyzer fluorescence microscopy).
Cre-loxP system and transgenic Ai14 mouse model were used in the in vivo genome editing study. […] When the Cre recombinase mediated gene reorganization occurs, the STOP cassette could be removed, resulting in the expression of fluorescent tdTomato reporter protein.
The OCholB LNPs was further investigated if they can induce successful gene editing in vivo through a systemic administration pathway. At first, Ai14 mice (n=3) were injected through tail vein (intravenous (IV) injection) with (−30)GFP-Cre protein loaded LNPs at day 1 and 5 (50 μg protein for each injection; 100 μg in total), then sacrificed at day 14 for analysis (FIG. 17C). […] The heart, liver, spleen, lung and kidney from each group were collected and analyzed. […] Like most intravenous nano-therapeutics, the (−30)GFP-Cre protein complexed OCholB nanoparticles injected through tail vein would travel first to the heart, and from there directly to the lung. The nanoparticle formulations (which may have complexed with serum proteins) could be easily trapped in the vasculature structures in the capillary bed of the lung, delaying or inhibiting the redistribution of LNPs to the liver, spleen and other organs. During the in vivo transport and redistribution process, some of the protein loaded LNPs may successfully enter into the cells in lung or spleen to induce the genome editing and tdTomato expression cascade. Degradation, aggregation and/or immune cells sequestration of the cargo protein and carrier LNPs would dramatically reduce or perhaps even prohibit genome editing events.
Next, in vivo systemic mRNA delivery using OCholB LNPs was tested using a similar intravenous injection protocol (FIG. 17C). Cre mRNA loaded 76-OCholB LNPs were injected at day 1 and day 5 (10 μg mRNA for each injection; 20 μg in total), and mice were sacrificed at day 14. All the major organs (heart, liver, spleen, lung and kidney) were collected and analyzed. […]

[4] = TEM size of lipidoid nanoparticles; assay type: physicochemical; settings: TEM images of LNPs
Experimental: All chemicals used for lipidoids synthesis were purchased from Sigma-Aldrich without further purification unless otherwise noted. (−30)GFP-Cre recombinase, S. pyogenes Cas9 (spCas9) and sgRNA were generated following the protocols reported in Wang at al., Proc. Natl. Acad. Sci. USA, 2016, 113, 2868-2873 (“Wang”). HeLa-DsRed and GFP-HEK cells were cultured in Dulbecco's modified eagle's medium (DMEM, Sigma-Aldrich) with 10% fetal bovine serum (FBS, Sigma-Aldrich) and 1% penicillin-streptomycin (Gibco). All ^1H NMR spectra were recorded on a Bruker AVIII 500 MHz NMR spectrometer operated in the Fourier transform mode. Hydrodynamic size and polydispersity index of nanoparticles were measured by Zeta-PALS particle size analyzer (Brookhaven Instruments). The apparent pKa values of lipidoids were determined using 2-(p-toluidinynaphthalene-6-sulphonic acid) (TNS, Sigma-Aldrich) as fluorescent probe following the protocols reported in Heyes et al., J. Controlled Release, 2005, 107, 276-287. TEM measurements were performed on a FEI Technai Transmission Electron Microscope. Fluorescence images of tissue slices were obtained using BZ-X Analyzer fluorescence microscope.
The morphologies of LNPs were further studied by the transmission electron microscopy (TEM). […] Subsequently, the stability of LNPs thus prepared was examined by DLS and fluorescence measurements.
The morphologies of OCholB fully substituted LNPs were then examined by transmission electron microscopy (TEM). […] In contrast, the vesicular structures were not well-formed for 87-OCholB and 90-OCholB compared to their counterparts, and amorphous aggregates were observed instead.

[5] = (−30)GFP-Cre loaded, IV day 1 and 5, 50 μg protein each
[6] = Cre mRNA loaded, IV day 1 and 5, 10 μg mRNA each

Structure (SMILES) | GFP^+ cells [1] | GFP^+ cells [2] | GFP^+ cells [3] | size measured by TEM [4] | also measured
CC(C)CCCC(C)C1CCC2C3CC=C4CC(OC(=O)NCCSSCCOC(=O)CCN(CCC(=O)OCCSSCCNC(=O)OC5CCC6(C)C(=CCC7C6CCC6(C)C(C(C)CCCC(C)C)CCC76)C5)CCN5CCCC5)CCC4(C)C3CCC12C (stereo not drawn) [Lipidoid 76-OCholB] | 24.1% | 70.7% | 75.8% |  | genome editing efficacy in the spleen (Ai14 mice; [5]): Relative high genome editing efficacy; tdTomato positive cells in the spleen (Ai14 mice; [6]): significant amount of tdTomato positive cells; tdTomato signals in other organs (heart, liver, lung, kidney) (Ai14 mice; [6]): positive signals were not found
CCN(CC)CCN(CCC(=O)OCCSSCCNC(=O)OC1CCC2(C)C(=CCC3C2CCC2(C)C(C(C)CCCC(C)C)CCC32)C1)CCC(=O)OCCSSCCNC(=O)OC1CCC2(C)C(=CCC3C2CCC2(C)C(C(C)CCCC(C)C)CCC32)C1 (stereo not drawn) [Lipidoid 75-OCholB] | 54.1% | 63.0% | 60.9% |  | 
CC(C)CCCC(C)C1CCC2C3CC=C4CC(OC(=O)NCCSSCCOC(=O)CCN(CCCN(C)C)CCC(=O)OCCSSCCNC(=O)OC5CCC6(C)C(=CCC7C6CCC6(C)C(C(C)CCCC(C)C)CCC76)C5)CCC4(C)C3CCC12C (stereo not drawn) [Lipidoid 80-OCholB] |  |  |  |  | genome editing efficacy in the lung (Ai14 mice; [5]): Relative high genome editing efficacy
CCN(CC)CCCN(CCC(=O)OCCSSCCNC(=O)OC1CCC2(C)C(=CCC3C2CCC2(C)C(C(C)CCCC(C)C)CCC32)C1)CCC(=O)OCCSSCCNC(=O)OC1CCC2(C)C(=CCC3C2CCC2(C)C(C(C)CCCC(C)C)CCC32)C1 (stereo not drawn) [Lipidoid 81-OCholB] |  |  |  | 216.9 nm | 
CC(C)CCCC(C)C1CCC2C3CC=C4CC(OC(=O)NCCSSCCOC(=O)CCN(C)CCN(CCN(C)CCC(=O)OCCSSCCNC(=O)OC5CCC6(C)C(=CCC7C6CCC6(C)C(C(C)CCCC(C)C)CCC76)C5)CCN(C)CCC(=O)OCCSSCCNC(=O)OC5CCC6(C)C(=CCC7C6CCC6(C)C(C(C)CCCC(C)C)CCC76)C5)CCC4(C)C3CCC12C (stereo not drawn) [Lipidoid 304-OCholB] |  |  |  | 394.0 nm | 
